Laboratory results reported in US6159940A, “Method for modulating hemopoiesis” (Immunotech Developments Inc., priority 1999, dated 2000).

How the values were obtained:
[1] = tested on: karyocytes in spleen and thymus; assay: Nucleated cell counts in thymus and spleen per mg of organ weight, radiation immunodeficiency; format: in vivo, (CBA×C57BL)F1 mice; conditions: 2 Gy
Procedure: Females and male (CBA×C57BL)F1 mice, aged about 2.5 months weighing about 20 g, were irradiated with gamma-rays using a "Luch-1" apparatus. Immunological activity was assessed according to Jerne (Antibody Forming Cells count--AFC). T-cell count in spleen was determined by the method of spontaneous rosette formation with sheep erythrocytes (E-FRC). The peptide was injected intramuscularly.
Mice were irradiated in a dose of 2 Gy, the peptide was injected in the dose of 10 μg/kg according to the following scheme (to determine T-cell count by the method of spontaneous rosette formation): 1 time--an hour after the irradiation; 2 times--an hour, and a day after irradiation; 3 times--an hour, a day, and two days after the irradiation; 4 times--an hour, a day, two days and three days after the irradiation. The intact mice recieved the peptide 3 or 4 times. The control group (2 Gy) recieved injections of physiological solution according to the same schedule. On completion of the treatment course, 10 mice from each group were immunized with sheep erythrocytes (SE) and 4-5 days later AFC counts were determined in their spleens. The rest of the mice were used to find T-cell count by the method of spontaneous rosette formation. The state of the organs of immune system (spleen and thymus) in mice with radiation immunodeficiency against the background of H-Ile-Glu-Trp-OH treatment was also listed by nucleated cell counts in thymus and spleen per mg of organ weight. AFC/mg Spleen weight is presented as an average of two experiments.

nucleated blood cells = assay: Nucleated blood cells and lymphocytes in irradiated mice (4 Gy), scheme 1; format: in vivo; parameters: Lymphocytes (absolute) in blood: unit not given here; conditions: for Karyocyte Count in Blood: scheme 1, 10 μg/kg i.m.
Procedure: Irradiated mice (4 Gy) received intramuscular injections of the peptide in the dose of 10 μg/kg according to 2 schemes.
a) Scheme 1: mice received the peptide immediately after irradiation, daily. […] Blood samples were taken four hours after the last peptide injection and on the 7th, 10th, and 16th day after the irradiation. Determined were total count of nucleated blood cells (NC) and lymphocyte percentage of them; nucleated cells and the CFU-S population in femoral bone marrow were counted on the 4th, 8th, and the 14th day.

[2] = Clinical study: tolerance, biochemical indices, humoral status; format: in vivo, patients
Excerpt: The clinical study of H-Ile-Glu-Trp-OH was continued in groups of patients with pronounced secondary pathological changes in their immune system. The primary task of the first stage of the investigation was to observe the preparation tolerance, to reveal toxic, allergic and other reactions, hemogram dynamics and biochemical indices. Further investigation, along with further monitoring of the major clinical and laboratory parameters, included evaluation of the immunological status of a patient before and after the immunopeptide treatment.
Before instituting the treatment, examination was carried out including case history, clinical, laboratory and instrumental investigations. Necessary morphological investigations were performed to verify the diagnosis. There were also the results of hemogram dynamics before and after each treatment course of H-Ile-Glu-Trp-OH. After these courses the biochemical indices and urine tests were examined again. X-ray, ultrasonic and morphological examinations were repeated on indication.
Humoral immunity was also investigated: the content of different types of immunoglobulins, protein fractions, antibodies to thyroid, and the Coombs test (the latter was performed in the case of haemolytic anaemia).
One ml daily, intranasally, once or twice in divided doses, for 5 days. The course was repeated after a 3-week interval. To those patients who received a cytostatic mono- or polychemotherapy, H-Ile-Glu-Trp-OH was administered from the first day of the break in the cytostatic treatment.

Allergenicity study = format: in vivo, rabbits; conditions: subcutaneous 0.01% solution for 5 days
Procedure: The study was performed in 12 rabbits, who received subcutaneous injections of 0.01% H-Ile-Glu-Trp-OH solution for 5 days. The control animals were injected with horse serum.

[3] = tested on: mixed lymphocyte culture (H-2d anti H-2b); assay: Proliferation of mixed lymphocyte culture (MLC), 3H-thymidine; format: cell-based
Procedure: This experimental system is an in vitro the analog of the Graft Versus Host Disease reaction.
In the present series of experiments the reaction H-2d, anti H-2b was examined. The new combination responder-stimulator. Each variant was made in a triplet. Microcultures were incubated for 4 days, then 3H-thymidine was added; then the mixture was incubated for 16 more hours, and after its transfer to the filters, the amount of 3H-thymidine was determined. H-Ile-Glu-Trp-OH was added at the beginning of the incubation in different concentrations.

[4] = Effect on cardio-vascular and respiratory systems, guinea pigs; format: in vivo
Procedure: The effects of H-Ile-Glu-Trp-OH on ECG and arterial pressure were studied in guinea pigs and cats.
The test was conducted in 20 guinea pigs.

## H-Ile-Glu-Trp-OH
[1]; 1 Injection
  Karyocyte Count, Spleen: 1120 ± 73 10^3 /mg
  Karyocyte Count, Thymus: 1860 ± 200 10^3 /mg
[1]; 2 Injection
  Karyocyte Count, Spleen: 890 ± 80 10^3 /mg
  Karyocyte Count, Thymus: 1840 ± 380 10^3 /mg
[1]; 3 Injection
  Karyocyte Count, Spleen: 980 ± 80 10^3 /mg
  Karyocyte Count, Thymus: 2590 ± 400 10^3 /mg
[1]; 4 Injection
  Karyocyte Count, Spleen: 1160 ± 100 10^3 /mg
  Karyocyte Count, Thymus: 2480 ± 280 10^3 /mg
Nucleated blood cells; scheme 1 (footnote of Table 7)
  Survival: 100%
Nucleated blood cells; 1 Time, Day 4
  Karyocyte Count in Blood: 0.80 ± 0.5 × 10^3 /lmm^3
Nucleated blood cells; 1 Time, Day 7
  Karyocyte Count in Blood: 3.53 ± 0.5 × 10^3 /lmm^3
Nucleated blood cells; 1 Time, Day 10
  Karyocyte Count in Blood: 4.30 ± 0.3 × 10^3 /lmm^3
Nucleated blood cells; 1 Time, Day 16
  Karyocyte Count in Blood: 4.49 ± 0.8 × 10^3 /lmm^3
Nucleated blood cells; 2 Times, Day 4
  Karyocyte Count in Blood: 1.30 ± 0.2 × 10^3 /lmm^3
Nucleated blood cells; 2 Times, Day 7
  Karyocyte Count in Blood: 3.64 ± 0.6 × 10^3 /lmm^3
Nucleated blood cells; 2 Times, Day 10
  Karyocyte Count in Blood: 6.42 ± 0.7 × 10^3 /lmm^3
Nucleated blood cells; 2 Times, Day 16
  Karyocyte Count in Blood: 5.96 ± 1.0 × 10^3 /lmm^3
Nucleated blood cells; 3 Times, Day 4
  Karyocyte Count in Blood: 1.19 ± 0.1 × 10^3 /lmm^3
Nucleated blood cells; 3 Times, Day 7
  Karyocyte Count in Blood: 5.58 ± 0.7 × 10^3 /lmm^3
Nucleated blood cells; 3 Times, Day 10
  Karyocyte Count in Blood: 4.18 ± 0.8 × 10^3 /lmm^3
Nucleated blood cells; 3 Times, Day 16
  Karyocyte Count in Blood: 6.32 ± 0.7 × 10^3 /lmm^3
Nucleated blood cells; 4 Times, Day 4
  Karyocyte Count in Blood: 1.64 ± 0.2 × 10^3 /lmm^3
Nucleated blood cells; 4 Times, Day 7
  Karyocyte Count in Blood: 4.14 ± 0.8 × 10^3 /lmm^3
Nucleated blood cells; 4 Times, Day 10
  Karyocyte Count in Blood: 4.90 ± 0.7 × 10^3 /lmm^3
Nucleated blood cells; 4 Times, Day 16
  Karyocyte Count in Blood: 7.32 ± 1.0 × 10^3 /lmm^3
Nucleated blood cells; scheme 1, 1 Time, Day 4
  Lymphocytes (absolute) in blood: 232
  Lymphocytes, % in blood: 29.0 ± 2.5%
Nucleated blood cells; scheme 1, 1 Time, Day 7
  Lymphocytes (absolute) in blood: 1365
  Lymphocytes, % in blood: 38.8 ± 3.1%
Nucleated blood cells; scheme 1, 1 Time, Day 10
  Lymphocytes (absolute) in blood: 1118
  Lymphocytes, % in blood: 26.3 ± 2.9%
Nucleated blood cells; scheme 1, 1 Time, Day 16
  Lymphocytes (absolute) in blood: 2412
  Lymphocytes, % in blood: 53.6 ± 6.0%
Nucleated blood cells; scheme 1, 2 Times, Day 4
  Lymphocytes (absolute) in blood: 468
  Lymphocytes, % in blood: 36.0 ± 1.7%
Nucleated blood cells; scheme 1, 2 Times, Day 7
  Lymphocytes (absolute) in blood: 1260
  Lymphocytes, % in blood: 34.8 ± 2.1%
Nucleated blood cells; scheme 1, 2 Times, Day 10
  Lymphocytes (absolute) in blood: 1664
  Lymphocytes, % in blood: 25.5 ± 2.7%
Nucleated blood cells; scheme 1, 2 Times, Day 16
  Lymphocytes (absolute) in blood: 2682
  Lymphocytes, % in blood: 44.8 ± 6.2%
Nucleated blood cells; scheme 1, 3 Times, Day 4
  Lymphocytes (absolute) in blood: 432
  Lymphocytes, % in blood: 36.0 ± 1.3%
Nucleated blood cells; scheme 1, 3 Times, Day 7
  Lymphocytes (absolute) in blood: 1512
  Lymphocytes, % in blood: 27.1 ± 1.9%
Nucleated blood cells; scheme 1, 3 Times, Day 10
  Lymphocytes (absolute) in blood: 1233
  Lymphocytes, % in blood: 29.5 ± 3.6%
Nucleated blood cells; scheme 1, 3 Times, Day 16
  Lymphocytes (absolute) in blood: 2853
  Lymphocytes, % in blood: 44.8 ± 4.80%
Nucleated blood cells; scheme 1, 4 Times, Day 4
  Lymphocytes (absolute) in blood: 639
  Lymphocytes, % in blood: 39.0 ± 2.9%
Nucleated blood cells; scheme 1, 4 Times, Day 7
  Lymphocytes (absolute) in blood: 1025
  Lymphocytes, % in blood: 25.6 ± 3.7%
Nucleated blood cells; scheme 1, 4 Times, Day 10
  Lymphocytes (absolute) in blood: 1475
  Lymphocytes, % in blood: 30.7 ± 6.5%
Nucleated blood cells; scheme 1, 4 Times, Day 16
  Lymphocytes (absolute) in blood: 2847
  Lymphocytes, % in blood: 38.5 ± 1.40%
[2]; 1-1.5 months after the treatment
  protein fractions and immunoglobulins in patients' sera: No dynamics of these indices was found
[2]; before and after 1-3 treatment courses
  dynamics of biochemical indices: revealed no changes
[2]; human, in vivo
  AP dynamics and ECG: failed to reveal any changes
[2]; prolonged administration (5-6 courses), intranasally
  adverse reactions: no toxic reactions
Allergenicity study
  reaction on the injection sites: No macroscopic reaction
[3]; 0.1 μg/ml (FIG. 4)
  proliferation of the allogenic lymphocytes: negligible inhibition of the proliferation
[3]; 1, 10, and 20 μg/ml (FIG. 4)
  proliferation of the allogenic lymphocytes: stimulation of proliferation
[4]
  ECG readings and arterial pressure: No significant difference from control
